Experimental data published in ChEMBL document CHEMBL1201862, “PubChem BioAssay data set” (2004).
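Method: 48-hour compound exposure of cells in 96-well plates, five concentrations, linear interpolation of endpoints. Here, GI50 denotes the concentration required for 50% inhibition of growth.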 Calls of active or inactive are those of the source. Cut-off read from the data, not from the text of the source: active = GI50 up to about 1.1 µM and inactive = higher.

Legend:
Assay in all cases: DTP human tumour cell line panel, 48 h
A498 = test system: A498
TK-10 = test system: TK-10
MDA-MB-435 = test system: MDA-MB-435
HOP-92 = test system: HOP-92
HCT-15 = test system: HCT-15
NCI/ADR-RES = test system: NCI/ADR-RES
RPMI-8226 = test system: RPMI-8226
SNB-75 = test system: SNB-75
OVCAR-8 = test system: OVCAR-8
HCT-116 = test system: HCT-116
HCC 2998 = test system: HCC 2998
U-251 = test system: U-251
NCI-H522 = test system: NCI-H522
CAKI-1 = test system: CAKI-1
CCRF-CEM = test system: CCRF-CEM
SF-268 = test system: SF-268
NCI-H23 = test system: NCI-H23
OVCAR-3 = test system: OVCAR-3
ACHN = test system: ACHN
HL-60 = test system: HL-60
RXF 393 = test system: RXF 393
UACC-62 = test system: UACC-62
Hs-578T = test system: Hs-578T
LOX IMVI = test system: LOX IMVI
MCF7 = test system: MCF7
UACC-257 = test system: UACC-257
OVCAR-5 = test system: OVCAR-5
HOP-62 = test system: HOP-62
SR = test system: SR
HT-29 = test system: HT-29
A549 = test system: A549
786-0 = test system: 786-0
SW-620 = test system: SW-620
SK-MEL-5 = test system: SK-MEL-5
K562 = test system: K562
SK-OV-3 = test system: SK-OV-3
COLO 205 = test system: COLO 205
MDA-N = test system: MDA-N
EKVX = test system: EKVX
NCI-H460 = test system: NCI-H460
T47D = test system: T47D
M14 = test system: M14
SF-539 = test system: SF-539
SN12C = test system: SN12C
KM12 = test system: KM12
DU-145 = test system: DU-145
SF-295 = test system: SF-295
UO-31 = test system: UO-31
NCI-H226 = test system: NCI-H226
IGROV-1 = test system: IGROV-1
MOLT-4 = test system: MOLT-4
SK-MEL-28 = test system: SK-MEL-28

In the case of `O=C1[C@H](O)[C@@H]2CCC[C@@]23CCCN13`, the GI50 (A498) is reported as > 100 µM (inactive), the GI50 (TK-10) is reported as > 100 µM (inactive) and the GI50 (MDA-MB-435) is reported as > 100 µM (inactive). The GI50 (HOP-92) was > 100 µM (inactive), the GI50 (HCT-15) was over 100 µM and the GI50 (NCI/ADR-RES) was > 100 µM (inactive). The GI50 (RPMI-8226) was > 100 µM (inactive), the GI50 (SNB-75) was > 100 µM (inactive) and the GI50 (OVCAR-8) was > 100 µM (inactive). The GI50 (HCT-116) was > 100 µM (inactive), the GI50 (HCC 2998) was > 100 µM (inactive) and the GI50 (U-251) was > 100 µM (inactive). For the same compound, the GI50 (NCI-H522) was > 100 µM (inactive), the GI50 (CAKI-1) was > 100 µM (inactive) and the GI50 (CCRF-CEM) was 94.4 µM (inactive). The GI50 (SF-268) was > 100 µM (inactive), the GI50 (NCI-H23) was > 100 µM (inactive) and the GI50 (OVCAR-3) was > 100 µM (inactive). The GI50 (ACHN) was > 100 µM (inactive), the GI50 (HL-60) was > 100 µM (inactive) and the GI50 (RXF 393) was > 100 µM (inactive). The GI50 (UACC-62) was > 100 µM (inactive), the GI50 (Hs-578T) was > 100 µM (inactive) and the GI50 (LOX IMVI) was > 100 µM (inactive). For the same compound, the GI50 (MCF7) was > 100 µM (inactive), the GI50 (UACC-257) was > 100 µM (inactive) and the GI50 (OVCAR-5) was > 100 µM (inactive). The GI50 (HOP-62) was > 100 µM (inactive), the GI50 (SR) was > 100 µM (inactive) and the GI50 (HT-29) was > 100 µM (inactive). The GI50 (A549) was > 100 µM (inactive), the GI50 (786-0) was > 100 µM (inactive) and the GI50 (SW-620) was > 100 µM (inactive). The GI50 (SK-MEL-5) was > 100 µM (inactive), the GI50 (K562) was > 100 µM (inactive) and the GI50 (SK-OV-3) was > 100 µM (inactive). For the same compound, the GI50 (COLO 205) was > 100 µM (inactive), the GI50 (MDA-N) was > 100 µM (inactive) and the GI50 (EKVX) was > 100 µM (inactive). The GI50 (NCI-H460) was > 100 µM (inactive), the GI50 (T47D) was > 100 µM (inactive) and the GI50 (M14) was > 100 µM (inactive). For the same compound, the GI50 (SF-539) was > 100 µM (inactive), the GI50 (SN12C) was > 100 µM (inactive) and the GI50 (KM12) was > 100 µM (inactive). For the same compound, the GI50 (DU-145) was > 100 µM (inactive), the GI50 (SF-295) was > 100 µM (inactive) and the GI50 (UO-31) was > 100 µM (inactive). The GI50 (NCI-H226) was > 100 µM (inactive), the GI50 (IGROV-1) was > 100 µM (inactive) and the GI50 (MOLT-4) was > 100 µM (inactive).

With `CN(C)CC1CCCCCCCCCCC1=O` (stereo not drawn) the GI50 (SNB-75) was > 100 µM (inactive), the GI50 (SK-MEL-28) was > 100 µM (inactive) and the GI50 (UACC-62) was > 100 µM (inactive). For the same compound, the GI50 (Hs-578T) was 66.4 µM (inactive), the GI50 (SK-MEL-5) was > 100 µM (inactive) and the GI50 (SK-OV-3) was 86.7 µM (inactive). For the same compound, the GI50 (IGROV-1) was > 100 µM (inactive).
